# Measurements as given in patent US20070049564A1 (Wyeth, priority 2005, published 2007).
# Read-outs that look alike come from different tables or passages of the source.
# How the values were obtained:
# [1] = system: c. albicans GC 3066; experiment: MIC, broth microdilution
# [2] = system: P. aeruginosa GC 2214; experiment: MIC, broth microdilution; conditions: Pseudomonas aeruginosa
# [3] = system: S. aureus GC 2216; experiment: MIC, broth microdilution; conditions: Staphylococcus aureus
# [4] = system: E. coli GC 2236; experiment: MIC, broth microdilution; conditions: Escherichia coli
# [5] = system: E. faecium GC 2243; experiment: MIC, broth microdilution; conditions: Enterococcus faecium
# Procedure: (§1) Antimicrobial susceptibility testing. The in vitro activities of the antibiotics are determined by the broth microdilution method as recommended by the National Committee for Clinical Laboratory Standards (NCCLS) (1). Mueller-Hinton II broth (MHBII)(BBL Cockeysville, Md.) is the medium employed in the testing procedures. Microtiter plates containing serial dilutions of each antimicrobial agent are inoculated with each organism to yield the appropriate density (10^5 CFU/ml) in a 100 μl final volume. The plates are incubated for 18-22 hours at 35° C. in ambient air.
# Representative compounds were first incubated in mouse serum for an hour prior to the in vitro testing against a panel of selected gram-positive and gram-negative bacteria strains. All compounds were also pre-incubated in water for an hour prior to testing as control.
# [6] = system: Staph. aureus Smith; experiment: In vivo activity (oral, iv; ED50) against Staph. aureus Smith in mice
# Procedure: Representative examples of compounds of Formula I were tested for the oral efficacy using S. aureus Smith in mice.
# [7] = system: S. aureus GC 4536; experiment: MIC, broth microdilution; conditions: Staphylococcus aureus
# [8] = system: E. faecalis GC 2242; experiment: MIC, broth microdilution; conditions: Enterococcus faecalis
# [9] = system: S. pneumoniae+ GC 4465; experiment: MIC, broth microdilution; conditions: Streptococcus pneumoniae
# [10] = system: S. aureus GC 1131; experiment: MIC, broth microdilution; conditions: Staphylococcus aureus
# [11] = system: S. epidermidis GC 4935; experiment: MIC, broth microdilution; conditions: Staphylococcus epidermidis
# [12] = system: S. pneumoniae* GC 4465; experiment: MIC, broth microdilution; conditions: Streptococcus pneumoniae
# [13] = system: Staph.; experiment: Range of MIC for Staph. strains, including MRSA; conditions: Staphylococcus aureus
# [14] = system: E. faecalis GC 2267; experiment: MIC, broth microdilution; conditions: Enterococcus faecalis
# [15] = system: E. coli GC 2232; experiment: MIC, broth microdilution; conditions: Escherichia coli
# [16] = system: E. faecalis GC 4555; experiment: MIC, broth microdilution; conditions: Enterococcus faecalis
# [17] = system: E. coli GC 2272; experiment: MIC, broth microdilution; conditions: Escherichia coli
# [18] = system: E. coli GC 2231; experiment: MIC, broth microdilution; conditions: Escherichia coli
# [19] = system: E. faecalis GC 2265; experiment: MIC, broth microdilution; conditions: Enterococcus faecalis
# [20] = system: E. coli; experiment: Range of MIC for E. coli strains; conditions: Escherichia coli
# Procedure: as §1
# Representative compounds were first incubated in mouse serum for an hour prior to the in vitro testing against a panel of selected gram-positive and gram-negative bacteria strains. All compounds were also pre-incubated in water for an hour prior to testing as control. Representative compounds of Formula I were incubated in human serum prior to MIC determination.
# [21] = MRSA, read-out: Range of MIC, Staph (Mouse Serum)
# [22] = MRSA, read-out: Range of MIC, Staph (Water)
smiles,measurement,setting,value
"CCCN(CC(=O)Nc1cc(N(C)C)c2c(c1O)C(=O)C1=C(O)[C@]3(O)C(=O)C(C(N)=O)=C(O)[C@@H](N(C)C)[C@@H]3C[C@@H]1C2)C(=O)OCc1ccccc1 [Example 14, benzyl 2-{[(5aR,6aS,7S,10aS)-9-(aminocarbonyl)-4,7-bis(dimethylamino)-1,8,10a,11-tetrahydroxy-10,12-dioxo-5,5a,6,6a,7,10,10a,12-octahydrotetracen-2-yl]amino}-2-oxoethyl(propyl)carbamate]",MIC,"[1]; Candida albicans, GC3066",> 64 µg/mL
same,MIC,"[1]; c. albicans GC 3066, Water pre-incubation",>64 UG/ML
same,MIC,"[2]; GC2214, P. aeruginosa GC 2214, Mouse Serum pre-incubation",> 64 µg/mL
same,MIC,"[2]; GC2214, P. aeruginosa GC 2214, Water pre-incubation",> 64 µg/mL
same,MIC,"[3]; GC2216, S. aureus GC 2216, Mouse Serum pre-incubation",2 µg/mL
same,MIC,"[3]; GC2216, S. aureus GC 2216, Water pre-incubation",4 µg/mL
same,MIC,"[4]; GC2236, E. coli GC 2236, Mouse Serum pre-incubation",> 64 µg/mL
same,MIC,"[4]; GC2236, E. coli GC 2236, Water pre-incubation",> 64 µg/mL
same,MIC,"[5]; GC2243, E. faecium GC 2243, Mouse Serum pre-incubation",2 µg/mL
same,MIC,"[5]; GC2243, E. faecium GC 2243, Water pre-incubation",4 µg/mL
same,ED50,"[6]; Staphylococcus aureus, in Mus musculus, po, read-out: ED50 Staph Smith SOD",> 32 mg/kg
same,ED50,"[6]; iv, read-out: ED50 Staph Smith SIV",> 2 mg/kg
same,MIC,"[7]; GC4536, S. aureus GC 4536, Mouse Serum pre-incubation",2 µg/mL
same,MIC,"[7]; GC4536, S. aureus GC 4536, Water pre-incubation",2 µg/mL
same,MIC,"[8]; GC2242, E. faecalis GC 2242, Mouse Serum pre-incubation",2 µg/mL
same,MIC,"[8]; GC2242, E. faecalis GC 2242, Water pre-incubation",8 µg/mL
same,MIC,"[9]; S. pneumoniae+ GC 4465, Mouse Serum pre-incubation",4 µg/mL
same,MIC,"[9]; S. pneumoniae+ GC 4465, Water pre-incubation",4 µg/mL
same,MIC,"[10]; GC1131, S. aureus GC 1131, Mouse Serum pre-incubation",1 µg/mL
same,MIC,"[10]; GC1131, S. aureus GC 1131, Water pre-incubation",2 µg/mL
same,MIC,"[11]; GC4935, S. epidermidis GC 4935, Mouse Serum pre-incubation",8 µg/mL
same,MIC,"[11]; GC4935, S. epidermidis GC 4935, Water pre-incubation",8 µg/mL
same,MIC,"[12]; S. pneumoniae* GC 4465, Mouse Serum pre-incubation",2 µg/mL
same,MIC,"[12]; S. pneumoniae* GC 4465, Water pre-incubation",4 µg/mL
same,MIC,[13]; [21],1 to 8 µg/mL
same,MIC,[13]; [22],2 to 8 µg/mL
same,MIC,"[14]; GC2267, E. faecalis GC 2267, Mouse Serum pre-incubation",2 µg/mL
same,MIC,"[14]; GC2267, E. faecalis GC 2267, Water pre-incubation",8 µg/mL
same,MIC,"[15]; GC2232, E. coli GC 2232, Mouse Serum pre-incubation",> 64 µg/mL
same,MIC,"[15]; GC2232, E. coli GC 2232, Water pre-incubation",> 64 µg/mL
same,MIC,"[16]; GC4555, E. faecalis GC 4555, Mouse Serum pre-incubation",2 µg/mL
same,MIC,"[16]; GC4555, E. faecalis GC 4555, Water pre-incubation",8 µg/mL
same,MIC,"[17]; GC2272, E. coli GC 2272, Mouse Serum pre-incubation",> 64 µg/mL
same,MIC,"[17]; GC2272, E. coli GC 2272, Water pre-incubation",> 64 µg/mL
same,MIC,"[18]; GC2231, E. coli GC 2231, Mouse Serum pre-incubation",> 64 µg/mL
same,MIC,"[18]; GC2231, E. coli GC 2231, Water pre-incubation",> 64 µg/mL
same,MIC,"[19]; GC2265, E. faecalis GC 2265, Mouse Serum pre-incubation",2 µg/mL
same,MIC,"[19]; GC2265, E. faecalis GC 2265, Water pre-incubation",8 µg/mL
"CN(C)c1cc(NC(=O)CN(C(=O)OCOC(=O)CCC2CCCCC2)C(C)(C)C)c(O)c2c1C[C@H]1C[C@H]3[C@H](N(C)C)C(O)=C(C(N)=O)C(=O)[C@@]3(O)C(O)=C1C2=O [Example 63, ({[(2-{[(5aR,6aS,7S,10aS)-9-(aminocarbonyl)-4,7-bis(dimethylamino)-1,8,10a,11-tetrahydroxy-10,12-dioxo-5,5a,6,6a,7,10,10a,12-octahydrotetracen-2-yl]amino}-2-oxoethyl)(tert-butyl)amino]carbonyl}oxy)methyl 3-cyclohexylpropanoate]",MIC,"[1]; Candida albicans, GC3066",> 64 µg/mL
same,MIC,[1]; pre-incubation in human serum,>64 UG/ML
same,MIC,[1]; pre-incubation in mouse serum,>64 UG/ML
same,MIC,"[2]; GC2214, pre-incubation in human serum",> 64 µg/mL
same,MIC,"[2]; GC2214, pre-incubation in mouse serum",32 µg/mL
same,MIC,"[2]; GC2214, pre-incubation in water",> 64 µg/mL
same,MIC,"[3]; GC2216, pre-incubation in human serum",1 µg/mL
same,MIC,"[3]; GC2216, pre-incubation in mouse serum",1 µg/mL
same,MIC,"[3]; GC2216, pre-incubation in water",4 µg/mL
same,MIC,"[4]; GC2236, pre-incubation in human serum",> 64 µg/mL
same,MIC,"[4]; GC2236, pre-incubation in mouse serum",1 µg/mL
same,MIC,"[4]; GC2236, pre-incubation in water",> 64 µg/mL
same,MIC,"[5]; GC2243, pre-incubation in human serum",0.25 µg/mL
same,MIC,"[5]; GC2243, pre-incubation in mouse serum",0.25 µg/mL
same,MIC,"[5]; GC2243, pre-incubation in water",0.5 µg/mL
same,MIC,"[7]; GC4536, pre-incubation in human serum",1 µg/mL
same,MIC,"[7]; GC4536, pre-incubation in mouse serum",1 µg/mL
same,MIC,"[7]; GC4536, pre-incubation in water",4 µg/mL
same,MIC,"[8]; GC2242, pre-incubation in human serum",1 µg/mL
same,MIC,"[8]; GC2242, pre-incubation in mouse serum",1 µg/mL
same,MIC,"[8]; GC2242, pre-incubation in water",1 µg/mL
same,MIC,[9]; pre-incubation in human serum,0.5 µg/mL
same,MIC,[9]; pre-incubation in mouse serum,0.5 µg/mL
same,MIC,[9]; pre-incubation in water,0.5 µg/mL
same,MIC,"[10]; GC1131, pre-incubation in human serum",1 µg/mL
same,MIC,"[10]; GC1131, pre-incubation in mouse serum",1 µg/mL
same,MIC,"[10]; GC1131, pre-incubation in water",4 µg/mL
same,MIC,"[11]; GC4935, pre-incubation in human serum",2 µg/mL
same,MIC,"[11]; GC4935, pre-incubation in mouse serum",2 µg/mL
same,MIC,"[11]; GC4935, pre-incubation in water",4 µg/mL
same,MIC,[12]; pre-incubation in human serum,0.12 µg/mL
same,MIC,[12]; pre-incubation in mouse serum,0.12 µg/mL
same,MIC,[12]; pre-incubation in water,0.12 µg/mL
same,MIC,[13]; [21],0.5 to 2 µg/mL
same,MIC,[13]; [22],2 to 16 µg/mL
same,MIC,"[13]; read-out: Minimum inhibitory concentration (MIC), Staph (Human Serum)",1 to 4 µg/mL
same,MIC,"[13]; read-out: Minimum inhibitory concentration (MIC), Staph (Water)",2 to 16 µg/mL
same,MIC,"[14]; GC2267, pre-incubation in human serum",2 µg/mL
same,MIC,"[14]; GC2267, pre-incubation in mouse serum",1 µg/mL
same,MIC,"[14]; GC2267, pre-incubation in water",16 µg/mL
same,MIC,"[20]; 20 h, read-out: Range of MIC, E. coli (Mouse Serum)",0.5 to 2 µg/mL
same,MIC,"[20]; read-out: Minimum inhibitory concentration (MIC), E. coli (water)",> 64 µg/mL
same,MIC,"[20]; read-out: Range of MIC, E. coli (Water)",> 64 µg/mL
same,MIC,"[15]; GC2232, pre-incubation in human serum",> 64 µg/mL
same,MIC,"[15]; GC2232, pre-incubation in mouse serum",1 µg/mL
same,MIC,"[15]; GC2232, pre-incubation in water",> 64 µg/mL
same,MIC,"[16]; GC4555, pre-incubation in human serum",2 µg/mL
same,MIC,"[16]; GC4555, pre-incubation in mouse serum",1 µg/mL
same,MIC,"[16]; GC4555, pre-incubation in water",4 µg/mL
same,MIC,"[17]; GC2272, pre-incubation in human serum",> 64 µg/mL
same,MIC,"[17]; GC2272, pre-incubation in mouse serum",1 µg/mL
same,MIC,"[17]; GC2272, pre-incubation in water",> 64 µg/mL
same,MIC,"[18]; GC2231, pre-incubation in human serum",> 64 µg/mL
same,MIC,"[18]; GC2231, pre-incubation in mouse serum",1 µg/mL
same,MIC,"[18]; GC2231, pre-incubation in water",> 64 µg/mL
same,MIC,"[19]; GC2265, pre-incubation in human serum",2 µg/mL
same,MIC,"[19]; GC2265, pre-incubation in mouse serum",1 µg/mL
same,MIC,"[19]; GC2265, pre-incubation in water",8 µg/mL
